Entries after “also recorded” stand apart in the source; their conditions may differ.
What was measured:
Format in all cases: cell-based
[1] = tested on: human IL-1 receptor; experiment: HEK-Blue IL-1R cells stimulated with human recombinant IL-1β
From the text: TLR2 and 4, and the endosomal TLRs 7-9, use the Myddosome signaling complex to activate transcription of pro-inflammatory cytokines, and endosomal TLRs also activate expression of type I IFNs via the same signaling complex. There are also several IL-1-like receptors including the IL-1 receptor (IL-1R) itself, which is characterized by extracellular immunoglobulin-like domains and intracellular Toll/Interleukin-1R (TIR) domains. These receptors also use the Myddosome complex to initiate downstream signaling. Therefore, we decided to test if signaling downstream of human IL-1R could be altered by the P7-Pen peptide. We used HEK-Blu IL-1R cells (Invivogen) that endogenously express the human IL-1 receptor. HEK-Blue IL-1R cells express a SEAP reporter gene under the control of the IFNβ minimal promoter fused to five NF-κB and five AP-1 binding sites. Binding of IL-1β to its receptor IL-1R on the surface of HEK-Blue IL-1R cells triggers a signaling cascade leading to the activation NF-κB and the subsequent production of SEAP.
In the assay, HEK-Blue IL-1R cells were pre-treated with control peptide or P7-Pen and stimulated with human recombinant II-1β (hII-1β) for up to 3 hr or for 24 hr. Stimulation of cells by TLR2 and 4 as well as by IL-1β would result in fast posttranslational modifications of IRAK1 in the Myddosome, and in phosphorylation of p38 MAPK. […]

[2] = molecular target: T1, Mal interaction with MyD88 and IRAK1 (Homo sapiens, UniProt P58753); experiment: Anti-Mal immunoprecipitation from LPS-stimulated primary human macrophages; conditions: 15 μM, 30 min pre-treatment, LPS 30 min or 1 h
T1 construct: endogenous in cells; host or cells: primary human macrophages, LPS-stimulated
T1 sequence (P58753 whole entry): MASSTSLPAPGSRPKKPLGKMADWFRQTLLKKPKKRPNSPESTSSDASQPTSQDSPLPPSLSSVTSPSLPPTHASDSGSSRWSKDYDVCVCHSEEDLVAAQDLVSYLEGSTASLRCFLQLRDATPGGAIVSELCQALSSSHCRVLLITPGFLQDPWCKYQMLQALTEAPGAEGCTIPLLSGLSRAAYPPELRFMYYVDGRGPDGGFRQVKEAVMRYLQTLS
Method: (A) Mal^Flag was overexpressed in HEK293T cells. […] Lysis buffer contained 300 mM NaCl and 1% Triton X100. (B) Mal^Flag and SLAMF1 wt or deletion mutants (Δ20 or Δ67 C-terminal amino acids) were co-expressed in HEK293T cells followed by immunoprecipitations with anti-Flag beads and Western blot analysis. (C) Primary human macrophages were pre-treated with 15 μM peptides for 30 min, stimulated with LPS for another 30 min or 1 h, lysed and used for IPs. Precipitations were performed using goat anti-Mal polyclonal antibodies covalently bound to magnetic beads, followed by Western blot analysis. Proteins in lysates were analysed for input control (A-C).

[3] = tested on: TLR8; experiment: qPCR of CL075-induced TLR8-mediated cytokine expression in primary human monocytes; conditions: 15 μM, CL075 1 μg/ml
Method: Cells were pre-treated with 15 μM peptides for 30 min, followed by addition of LPS (100 ng/ml) (A) or CL075 (1 μg/ml) (B) for 2 or 4 h. Each dot on the graphs corresponds to the average value for one donor, the lines show the mean values for all donors, and error bars indicate the SD.
Total RNA was isolated from the cells using Qiazol reagent #79306 from QIAGEN, and chloroform extraction followed by purification on RNeasy Mini columns with DNAse digestion (Qiagen). cDNA was prepared using the Maxima First Strand cDNA Synthesis Kit for quantitative real-time polymerase chain reaction (RT-qPCR) (Thermo Fisher Scientific) according to the manufacturer's protocol. qPCR was performed using the PerfeCTa qPCR FastMix (Quanta Biosciences) in replicates and cycled in a StepOnePlus™ Real-Time PCR cycler. The following TaqMan® Gene Expression Assays (Applied Biosystems®) were used: IFNβ (Hs01077958_s1), TNF (Hs00174128_m1), TBP (Hs00427620_m1), CXCL10 (Hs01124251_g1), IL-6 (Hs00174131_m1) and IL-1β (Hs01555410_m1), for human cells; Ifnβ (Mm00439552_s1), Tnf (Mm00443258_m1), Tbp (Mm01277042_m1) and II-1β (Mm00434228_m1), for mouse cells. […] Relative expression was calculated using Pfaffl's mathematical model (Pfaffl, Nucleic Acids Research 29(9): e45, 2001). […] Statistical significance was evaluated in GraphPad Prizm 5.03. […] The difference between the two groups was determined by two-tailed t test. […]

Ac-ITVYASVTLTGRQIKIWFQNRRMKWKK-NH2 [Peptide P7-Pen]
IL-1β-induced IRAK1 posttranslational modifications or p-p38 MAPK levels ([1]; data not shown): no effect | IL-1β-mediated secretion of SEAP ([1]; versus cells pre-treated with control peptide Pen (data not shown)): comparable | Mal recruitment to the MyD88 complex and IRAK1 [2]: totally abrogated; also recorded: disruption | CL075-induced TLR8-mediated IFNβ mRNA expression [3]: inhibited | expression of proinflammatory cytokines [3]: no significant effect

Reference: patent US20230220047A1, “PEPTIDES FOR TREATMENT OF SEPSIS AND CANCER” (NORWEGIAN UNIVERSITY OF SCIENCE AND TECHNOLOGY (NTNU), priority 2020, published 2023)
